Values quoted from earlier work, collected in US20020177579A1, “Extended release formulation of water-soluble drugs” (priority 2000, published 2002).
Counter-ions that a name gives are not always drawn.

How the values were obtained:
[1] = for Fraction Absorbed: in vivo

| Fraction Absorbed [1] | Solubility (in words) | Structure (SMILES) | also measured |
| --- | --- | --- | --- |
| 37% | – | CCOC(=O)[C@H](CCc1ccccc1)N[C@H]1CCc2ccccc2N(CC(=O)O)C1=O.Cl [Benazepril HCI] | Solubility: >100 mg/mL |
| 36% | – | CCC(=O)O[C@@H](O[P@](=O)(CCCCc1ccccc1)CC(=O)N1C[C@H](C2CCCCC2)C[C@H]1C(=O)O)C(C)C [Fosinopril Sodium] | Solubility: 100 mg/mL |
| 60% | “Freely | CCOC(=O)[C@H](CCc1ccccc1)N[C@@H](C)C(=O)N1Cc2ccccc2C[C@H]1C(=O)O [Quinapril HCI] | – |

The remaining lines, values behind:

| Structure (SMILES) | Fraction Absorbed [1] | Solubility (in words) | also measured |
| --- | --- | --- | --- |
| COc1ccc([C@@H]2Sc3ccccc3N(CCN(C)C)C(=O)[C@@H]2OC(C)=O)cc1 [Diltiazem hydrochloride, 1,5-benzothiazepin-4 (5H) one, 3-(acetyloxy)-5-[2-(dimethylamino)ethyl]-2,3-dihydro-2-(4-methoxyphenyl)-, monohydrochloride, (+)-cis-4] | – | – | solubility in 100% ethanol (100% ethanol): slightly soluble; solubility in benzene (benzene): not soluble; solubility in chloroform (chloroform): freely soluble; solubility in methanol (methanol): freely soluble; solubility in water (water): freely soluble; absolute bioavailability ([1]; compared to intravenous administration): about 40% |
| CN1C2CCCC1CC(NC(=O)c1nn(C)c3ccccc13)C2 (centres unmarked) [Granisetron HCI] | ˜90% | “Readily | – |
| COCCc1ccc(OCC(O)CNC(C)C)cc1 (centres unmarked) [Metoprolol Succinate] | – | “Freely | – |
| CNS(=O)(=O)Cc1ccc2[nH]cc(CCN(C)C)c2c1 [Sumatriptan Succinate] | 15% | “Readily | – |
